For one assay, the target named is T1, USP5 (Homo sapiens, UniProt P45974).
T1 sequence (P45974 1-858): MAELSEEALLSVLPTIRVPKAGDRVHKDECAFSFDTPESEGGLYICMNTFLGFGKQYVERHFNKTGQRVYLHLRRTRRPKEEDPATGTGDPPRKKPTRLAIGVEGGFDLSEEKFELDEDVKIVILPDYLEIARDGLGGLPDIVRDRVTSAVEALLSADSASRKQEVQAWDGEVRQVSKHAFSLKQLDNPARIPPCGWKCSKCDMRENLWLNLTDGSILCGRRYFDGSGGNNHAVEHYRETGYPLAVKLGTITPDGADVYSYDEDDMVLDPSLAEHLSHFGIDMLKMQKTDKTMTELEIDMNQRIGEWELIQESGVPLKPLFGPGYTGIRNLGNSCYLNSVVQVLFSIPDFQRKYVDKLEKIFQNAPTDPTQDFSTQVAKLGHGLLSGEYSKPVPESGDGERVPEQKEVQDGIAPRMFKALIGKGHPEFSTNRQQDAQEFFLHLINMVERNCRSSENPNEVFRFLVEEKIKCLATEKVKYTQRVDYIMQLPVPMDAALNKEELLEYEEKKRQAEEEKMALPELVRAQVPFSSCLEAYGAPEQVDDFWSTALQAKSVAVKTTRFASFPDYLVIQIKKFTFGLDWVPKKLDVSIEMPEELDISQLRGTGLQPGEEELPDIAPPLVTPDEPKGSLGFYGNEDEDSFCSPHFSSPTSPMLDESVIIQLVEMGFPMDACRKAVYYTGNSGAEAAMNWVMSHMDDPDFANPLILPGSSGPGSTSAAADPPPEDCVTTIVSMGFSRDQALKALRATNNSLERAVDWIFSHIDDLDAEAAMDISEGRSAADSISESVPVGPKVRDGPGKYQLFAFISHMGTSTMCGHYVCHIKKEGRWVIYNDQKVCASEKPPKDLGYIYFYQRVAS
The assay is described as follows: USP5 activity assay. It counts as biochemical. The note with it: 400 nM Ub-AMC, 300 pM enzyme, 30 min pre-incubation at 25° C., 60 min at 37° C.; sigmoidal fit; AF: Autofluorescent; read-out: USP 5 (inhibition of cysteine protease activity). The procedure: Bovine Serum Albumin 0.05 mg·ml^−1 pH7.6). Compounds stocks (100 mM) were stored at −20° C. in DMSO. […] Reactions were performed as duplicates in Black LJL 96 well plates (HE microplates; Molecular Devices; 20 μl final reaction volume). The substrate concentration for USP5 was 400 nM Ub-AMC (Boston Biochem). The concentrations of the enzyme (USP5) in specificity assays was 300 pM. The concentrations were determined in order to perform specificity assays under initial velocities at fixed substrate concentration. Compounds were pre-incubated with enzymes for 30 minutes at 25° C. Reactions were initiated by addition of substrate to the plates containing the enzymes (+/− compounds) diluted in assay buffer. Reactions were incubated for 60 minutes at 37° C. Reactions were stopped by adding acetic acid (100 mM final). Readings were performed on a Pherastar Fluorescent Reader (BMG). λ Emission 380 nm; λ Excitation=460 nm. Data (mean values +/− standard deviation) were analyzed as % of control (no compound) and plotted as percentage versus the Log of the compound concentration using GraphPad (Prism). Data were fitted to a sigmoidal model (variable slope).

Assay [1] deals with HCT116 colon cancer cells. Briefly: HCT116 cell viability and proliferation assay (MTS). It is filed as cell-based. Conditions: Homo sapiens, read-out: HCT116 D3 GI50.
The test system of assay [2] is PC-3 prostate cancer cells. Briefly: PC3 cell viability and proliferation assay (MTS). The note with it: Homo sapiens, PC-3, 72 h, read-out: PC3 D3 GI50. It counts as cell-based.
Where [3] appears, read: HCT-116, HCT116 cells, 72 hours incubation, MTS, mean of 3 independent experiments.
[4] abbreviates: PC3 cells, 72 hours incubation, MTS, mean of 3 independent experiments.

pIC50: −log10 of the molar value. Where two headings read alike, the source gives them in different places.

For `COc1ccc2c(c1)-c1nc(C#N)c(C#N)nc1C2=O` [Example 17a, 6-Methoxy-9-oxo-9H-indeno[1,2-b]pyrazine-2,3-dicarbonitrile], at USP5, the pIC50 is 4.54. Also, the results for the GI50 in assay [1] (setting [3]) and in assay [2] (setting [4]) were 0.61 µM and 1.4 µM, respectively.

With `C=CCON=C1c2ccc(Cl)cc2-c2nc(C#N)c(C#N)nc21` [Example 27c, 9-Allyloxyimino-6-chloro-9H-indeno[1,2-b]pyrazine-2,3-dicarbonitrile], at USP5, the pIC50 was 5.77. Further, the 50% growth inhibitory concentration (GI50) stood at 0.421 µM in assay [1] (HCT-116, 72 h) and 0.803 µM in assay [2].

Consider `N#Cc1nc2c(nc1C(N)=O)-c1ccccc1/C2=N\O` [Example 11, 2-cyano-9-[hydroxyimino]-9H-indeno[1,2-b]pyrazine-3-carboxylic acid amide], for which the pIC50 at USP5 is 5.68. Moreover, the concentration for 50% growth inhibition (GI50) in assay [1] (setting [3]) worked out at 1.6 µM; in assay [2] (setting [4]) it was 1.24 µM.

Turning to `N#Cc1nc2c(nc1C(N)=O)-c1ccccc1/C2=N\OCC(=O)O` [Example 38, (3-carbamoyl-2-cyano-indeno[1,2-b]pyrazin-9-ylideneaminooxy)-acetic acid], at USP5, the pIC50 was 5.73. For the same molecule, in assay [1] (HCT-116, 72 h), the GI50 was above 10 µM.

On to `Cc1c(F)ccc2c1C(=O)c1nc(C#N)c(C#N)nc1-2` [Example 30, 7-Fluoro-8-methyl-9-oxo-9H-indeno[1,2-b]pyrazine-2,3-dicarbonitrile], for which the pIC50 at USP5 is 5.79. Further, the GI50 in assay [1] (setting [3]) turned out to be 0.705 µM; in assay [2] (setting [4]) it was 0.854 µM.

As to `N#Cc1nc2c(nc1C(N)=O)-c1ccccc1C2=O` [Example 36, 2-cyano-9-oxo-9H-indeno[1,2-b]pyrazine-3-carboxylic acid amide], on USP5, the pIC50 is 6.68. For the same molecule, in assay [1] (HCT-116, 72 h), the concentration for 50% growth inhibition (GI50) was determined as 4.25 µM.

Take `N#Cc1nc2c(nc1C(N)=O)-c1ccccc1/C2=N\OCC(=O)NCC(=O)O` [Example 41, [2-(3-carbamoyl-2-cyano-indeno[1,2-b]pyrazin-9-ylideneaminooxy)-acetylamino]-acetic acid]: on USP5, the pIC50 is 5.72. In addition, in assay [1] (HCT-116, 72 h), the GI50 was above 10 µM.

Turning to `CCOC(=O)CO/N=C1\c2ccccc2-c2nc(C(N)=O)c(C#N)nc21` [Example 37, (3-carbamoyl-2-cyano-indeno[1,2-b]pyrazin-9-ylideneaminooxy)-acetic acid ethyl ester], the pIC50 at USP5 is 6.10. For the same molecule, the 50% growth inhibitory concentration (GI50) in assay [1] (setting [3]) came to 0.652 µM.

For `CCOC(=O)CNC(=O)CO/N=C1\c2ccccc2-c2nc(C(N)=O)c(C#N)nc21` [Example 40, [2-(3-carbamoyl-2-cyano-indeno[1,2-b]pyrazin-9-ylideneaminooxy)-acetylamino]-acetic acid ethyl ester], at USP5, the pIC50 was 5.95. Besides, the GI50 in assay [1] (setting [3]) was determined as 4.6 µM.

`N#Cc1nc2c(nc1C#N)-c1cc(Cl)c(Cl)cc1C2=O` [Example 31, 6,7-dichloro-9-oxo-9H-indeno[1,2-b]pyrazine-2,3-dicarbonitrile]: the pIC50 on USP5 is 6.48. The concentration for 50% growth inhibition (GI50) was found to be 0.753 µM in assay [1] (HCT-116, 72 h) and 2.43 µM in assay [2].

One may read the GI50 as the concentration that inhibits growth by half.
